# Assays:
# HLA A*0301 [1] = biological target: T1, HLA A*0301 (Homo sapiens, UniProt P04439); assay: ITOPIA off-rate assay; format: binding; settings: 37° C., one-phase exponential decay
# T1 construct: purchased
# Procedure: (§1) Peptide binding, off-rate and affinity were measured according to the protocols described in the ITOPIA Epitope Discovery System Customer Guide. To conduct the experiments, ninety-six (96) micro-titer plates coated with MHC molecules representing the HLA alleles listed in Table 9 were used to identify candidate peptides. Determinations were performed in duplicate using an ELISA plate reader. The peptide binding assay used measures the ability of individual peptides to bind to the HLA molecules under standardized optimal binding conditions. The assay was performed for all the test peptides across the selected HLA alleles. The test peptides identified as “binders” were characterized further in terms of affinity and dissociation experiments. The off-rate assay used evaluates the dissociation of previously bound peptide at defined time points (expressed as the t1/2 value). The affinity assay used measures the relative binding affinities for the MHC molecules determined by incubating candidate peptides identified in the initial peptide binding assay at increasing concentrations (expressed as quantity of peptide needed to achieve 50% binding or ED50 value).
# (§2) The peptides initially identified as binders were evaluated for stability based on their ability to remain bound to MHC molecules at 37° C. at time points 0, 0.5, 1, 1.5, 2, 4, 6 and 8 hours. […] The values obtained for each time point (in duplicate) are expressed (Table 11) as a percentage of the positive control. To calculate the t1/2 and goodness-of-fit, as measured by r^2, for each peptide, a one-phase exponential decay curve, with a plateau given equal to 0, was generated using […] PRISM software.
# HLA A*1101 [2] = biological target: T2, HLA A*1101 (Homo sapiens, UniProt P04439, A114D/D185E/E176A/F33Y/L180Q/S129P/T187R); assay: ITOPIA off-rate assay; format: binding; settings: 37° C., one-phase exponential decay
# T2 construct: purchased
# Procedure: as §1, §2
# HLA A*0201 [3] = biological target: T3, HLA A*0201 (Homo sapiens, UniProt P04439, D140Y/D185E/D98H/E176V/E277Q/G131W/G231S/I119V/I121R/I166T/I218V/L300P/L318F/N151K/N90K/P208A/P217A/Q86G/Q94H/R138H/R169H/T345S); assay: ITOPIA off-rate assay; format: binding; settings: 37° C., one-phase exponential decay
# Procedure: as §1, §2
# HLA A*0101 [4] = biological target: T4, HLA A*0101 (Homo sapiens, UniProt P04439, A114D/A174V/A182V/D101N/D185E/E176A/E190D/L180R/Q94H/R68K/S129P/T187R/V100A/V91M/W191G); assay: Multi-parametric analysis iScore; format: binding; set-up: scale not given here; settings: index integrating t1/2 and ED50
# T4 construct: purchased
# Procedure: (§3) Multi-parametric analysis was performed to integrate the half-life (t½) and ED50 parameters in an index (iScore). The iScore (Table 13) reflects the capability of a peptide to reconstitute with MHC molecules in a stable complex, defining its overall level of binding.
# HLA B*0801 [5] = biological target: T5, HLA B*0801 (Homo sapiens, UniProt P01889, A93T/A95T/D138N/E176V/E187T/K202T/Q94N/R180D/S35A/V36M/Y33D/Y91F); assay: Multi-parametric analysis iScore; format: binding; set-up: scale not given here; settings: index integrating t1/2 and ED50
# T5 construct: purchased
# Procedure: as §3
# HLA B*1501 [6] = biological target: T6, HLA B*1501 (Homo sapiens, UniProt P01889, A329T/A93T/A95T/C349S/D201E/D98Y/E187L/E204Q/E69M/E70A/K202T/N87E/Q94N/R155S/R180W/S121R/S35A/S48A/V306I/V36M/Y140S/Y91S); assay: Multi-parametric analysis iScore; format: binding; set-up: scale not given here; settings: index integrating t1/2 and ED50
# T6 construct: purchased
# Procedure: as §3
# HLA B*0702 [7] = biological target: T7, HLA B*0702 (Homo sapiens, UniProt P01889); assay: Multi-parametric analysis iScore; format: binding; set-up: scale not given here; settings: index integrating t1/2 and ED50
# T7 construct: purchased
# Procedure: as §3
# HLA A*0301 [8] = biological target: T1, HLA A*0301; assay: Multi-parametric analysis iScore; format: binding; set-up: scale not given here; settings: index integrating t1/2 and ED50
# Procedure: as §3
# HLA A*1101 [9] = biological target: T2, HLA A*1101; assay: Multi-parametric analysis iScore; format: binding; set-up: scale not given here; settings: index integrating t1/2 and ED50
# Procedure: as §3
# HLA A*2402 [10] = biological target: T8, HLA A*2402 (Homo sapiens, UniProt P04439, D101N/D140Y/D185E/E176V/E190D/F33S/G103R/G107R/I119L/I121M/I306V/K335N/L105A/L180Q/L300P/N151K/N90K/Q86E/Q94H/R106L/R138H/R89G/T104I/T345S/V100E/W191G/Y123F); assay: Multi-parametric analysis iScore; format: binding; set-up: scale not given here; settings: index integrating t1/2 and ED50
# Procedure: as §3
# HLA A*0201 [11] = biological target: T3, HLA A*0201; assay: Multi-parametric analysis iScore; format: binding; set-up: scale not given here; settings: index integrating t1/2 and ED50
# Procedure: as §3
# HLA A*0101 [12] = biological target: T4, HLA A*0101; assay: ITOPIA peptide binding assay; settings: 1.11×10^−4M of peptide
# Procedure: as §1
# (§4) The binding of the test peptides (Table 8) to the HLA molecules (Table 9) was performed at a concentration of 1.11×10^−4M of peptide under optimal, standardized test conditions. A control peptide was run in parallel on the same plate and at the same concentration as the test peptides. […] The level of binding is expressed as a percent of positive control peptide binding for each allele.
# HLA B*0801 [13] = biological target: T5, HLA B*0801; assay: ITOPIA peptide binding assay; settings: 1.11×10^−4M of peptide
# Procedure: as §1, §4
# HLA B*1501 [14] = biological target: T6, HLA B*1501; assay: ITOPIA peptide binding assay; settings: 1.11×10^−4M of peptide
# Procedure: as §1, §4
# HLA B*0702 [15] = biological target: T7, HLA B*0702; assay: ITOPIA peptide binding assay; settings: 1.11×10^−4M of peptide
# Procedure: as §1, §4
# HLA A*0301 [16] = biological target: T1, HLA A*0301; assay: ITOPIA peptide binding assay; settings: 1.11×10^−4M of peptide
# Procedure: as §1, §4
# HLA A*1101 [17] = biological target: T2, HLA A*1101; assay: ITOPIA peptide binding assay; settings: 1.11×10^−4M of peptide
# Procedure: as §1, §4
# HLA A*2402 [18] = biological target: T8, HLA A*2402; assay: ITOPIA peptide binding assay; settings: 1.11×10^−4M of peptide
# Procedure: as §1, §4
# HLA A*0201 [19] = biological target: T3, HLA A*0201; assay: ITOPIA peptide binding assay; settings: 1.11×10^−4M of peptide
# Procedure: as §1, §4
# HLA B*0801 [20] = biological target: T5, HLA B*0801; assay: ITOPIA off-rate assay; format: binding; settings: 37° C., one-phase exponential decay
# Procedure: as §1, §2
# HLA B*0702 [21] = biological target: T7, HLA B*0702; assay: ITOPIA off-rate assay; format: binding; settings: 37° C., one-phase exponential decay
# Procedure: as §1, §2
# HLA A*2402 [22] = biological target: T8, HLA A*2402; assay: ITOPIA off-rate assay; format: binding; settings: 37° C., one-phase exponential decay
# Procedure: as §1, §2
# HLA B*1501 [23] = biological target: T6, HLA B*1501; assay: ITOPIA off-rate assay; format: binding; settings: 37° C., one-phase exponential decay
# Procedure: as §1, §2
# target cells = settings: in vitro; compared with consensus epitope; cited from earlier work
Sequence,A*1101 t1/2 (HLA A*1101 [2]) [h],A*0201 t1/2 (HLA A*0201 [3]) [h],iScore (HLA A*0101 [4]),iScore (HLA B*0801 [5]),iScore (HLA B*1501 [6]),iScore (HLA B*0702 [7]),iScore (HLA A*0301 [8]),iScore (HLA A*1101 [9]),iScore (HLA A*2402 [10]),iScore (HLA A*0201 [11]),"level of binding, percent of positive control peptide binding (HLA A*0101 [12])","level of binding, percent of positive control peptide binding (HLA B*0801 [13])","level of binding, percent of positive control peptide binding (HLA B*1501 [14])","level of binding, percent of positive control peptide binding (HLA B*0702 [15])","level of binding, percent of positive control peptide binding (HLA A*0301 [16])","level of binding, percent of positive control peptide binding (HLA A*1101 [17])","level of binding, percent of positive control peptide binding (HLA A*2402 [18])","level of binding, percent of positive control peptide binding (HLA A*0201 [19])",B*0801 t1/2 (HLA B*0801 [20]) [h],B*0702 t1/2 (HLA B*0702 [21]) [h],also measured
KLAGRWPVK [compound 71],2.6,1.3,0,0,0,0,0.606,0.834,0,0.084,0% of positive control,4% of positive control,2% of positive control,0% of positive control,114% of positive control,160% of positive control,11% of positive control,26% of positive control,,,A*0301 t1/2 (HLA A*0301 [1]): 4.6 h
KLAGRWPVT [compound 157],1.6,1.1,0,0,0,0,0,0.039,0,0.129,2% of positive control,4% of positive control,6% of positive control,3% of positive control,9% of positive control,19% of positive control,8% of positive control,51% of positive control,,,
RGRQKVVSI [compound 153],,,0,0.165,0,0.271,0,0,0.050,0,0% of positive control,71% of positive control,7% of positive control,88% of positive control,0% of positive control,6% of positive control,29% of positive control,6% of positive control,1.2,1.3,A*2402 t1/2 (HLA A*2402 [22]): 1.8 h
RGRQKVVSL [compound 68],,,0,0.100,0.106,0.307,0,0,0,0,0% of positive control,73% of positive control,55% of positive control,96% of positive control,0% of positive control,0% of positive control,17% of positive control,5% of positive control,1.2,1.1,B*1501 t1/2 (HLA B*1501 [23]): 3.5 h
TAFTIPST,,,,,,,,,,,,,,,,,,,,,increase in the peptide concentration required to sensitize target cells for 50% lysis (SD50) by CTLs (target cells): hundred-fold increase
